From ChEMBL document CHEMBL5584338, “Design, Synthesis, and Biological Evaluation of 5-Amino-4-fluoro-1H-benzo[d]imidazole-6-carboxamide Derivatives as Novel and Potential MEK/RAF Complex Inhibitors Based on the "Clamp" Strategy” (J Med Chem, 2024)

Tests used:
MIA PaCa-2 [1] = assay: Antiproliferative activity against human MIA PaCa-2 cells harboring KRAS G12C mutant at 0.1 uM incubated for 72 hrs by CCK8 assay relative to control; assay type: functional
HCT-116 [2] = assay: Antiproliferative activity against human HCT-116 cells harboring KRAS G13D mutant at 1 uM incubated for 72 hrs by CCK8 assay relative to control; assay type: functional
MIA PaCa-2 [3] = assay: Antiproliferative activity against human MIA PaCa-2 cells harboring KRAS G12C mutant incubated for 72 hrs by CCK8 assay; assay type: functional, cell-based; conditions: MIA PaCa-2, 72 h
HCT-116 [4] = assay: Antiproliferative activity against human HCT-116 cells harboring KRAS G13D mutant incubated for 72 hrs by CCK8 assay; assay type: functional, cell-based; conditions: HCT-116, 72 h
[5] = target: Serine/threonine-protein kinase B-raf (Homo sapiens, UniProt P15056); assay: Inhibition of BRAF (unknown origin) assessed as remaining activity at 0.1 uM relative to control
Serine/threonine-protein kinase B-raf, sequence (P15056 whole entry): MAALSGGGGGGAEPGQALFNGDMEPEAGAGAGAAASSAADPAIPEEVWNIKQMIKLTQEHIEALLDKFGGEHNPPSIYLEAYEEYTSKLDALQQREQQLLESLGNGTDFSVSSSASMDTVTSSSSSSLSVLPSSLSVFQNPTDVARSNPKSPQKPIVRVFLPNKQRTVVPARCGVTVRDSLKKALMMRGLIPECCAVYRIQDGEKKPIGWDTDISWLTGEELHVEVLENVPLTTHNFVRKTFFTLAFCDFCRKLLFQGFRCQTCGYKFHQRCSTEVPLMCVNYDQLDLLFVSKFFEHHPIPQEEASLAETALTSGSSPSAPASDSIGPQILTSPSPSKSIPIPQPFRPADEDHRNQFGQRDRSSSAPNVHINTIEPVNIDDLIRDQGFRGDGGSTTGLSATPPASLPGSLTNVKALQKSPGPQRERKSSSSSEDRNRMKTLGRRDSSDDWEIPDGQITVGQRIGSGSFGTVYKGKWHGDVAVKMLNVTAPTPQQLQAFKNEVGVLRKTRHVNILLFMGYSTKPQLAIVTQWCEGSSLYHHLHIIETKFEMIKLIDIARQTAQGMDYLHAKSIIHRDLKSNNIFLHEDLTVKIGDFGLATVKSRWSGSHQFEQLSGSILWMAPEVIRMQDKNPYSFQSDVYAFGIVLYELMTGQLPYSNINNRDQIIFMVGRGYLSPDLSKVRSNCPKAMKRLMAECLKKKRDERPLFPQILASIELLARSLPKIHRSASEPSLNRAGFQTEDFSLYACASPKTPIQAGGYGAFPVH

[6] = target: Dual specificity mitogen-activated protein kinase kinase 1 (Homo sapiens, UniProt Q02750); assay: Inhibition of MEK1 (unknown origin) assessed as remaining activity at 0.1 uM relative to control
Dual specificity mitogen-activated protein kinase kinase 1, sequence (Q02750 whole entry): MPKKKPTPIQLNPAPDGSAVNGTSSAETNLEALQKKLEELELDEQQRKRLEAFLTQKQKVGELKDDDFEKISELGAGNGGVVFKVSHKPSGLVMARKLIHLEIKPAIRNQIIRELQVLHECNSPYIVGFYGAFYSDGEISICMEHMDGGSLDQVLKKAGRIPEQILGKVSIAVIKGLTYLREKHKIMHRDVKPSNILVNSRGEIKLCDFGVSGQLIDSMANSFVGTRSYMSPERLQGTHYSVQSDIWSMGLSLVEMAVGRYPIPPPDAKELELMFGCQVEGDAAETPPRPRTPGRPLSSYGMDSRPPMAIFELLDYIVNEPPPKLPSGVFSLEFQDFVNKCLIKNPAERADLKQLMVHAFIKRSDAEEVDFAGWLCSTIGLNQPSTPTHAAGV

| IC50 (MIA PaCa-2 [3]) [µM] | IC50 (HCT-116 [4]) [µM] | Activity [5] [%] | Activity [6] [%] | Compound | inhibition at 0.1 µM (MIA PaCa-2 [1]) [%] | inhibition at 1 µM (HCT-116 [2]) [%] |
| --- | --- | --- | --- | --- | --- | --- |
| – | – | – | – | CCNS(=O)(=O)Nc1cc(Cn2cnc3c(F)c(Nc4ccc(C5CC5)cc4F)c(C(=O)NOCCO)cc32)ccc1F | 34.5 | 17.5 |
| – | – | – | – | CNS(=O)(=O)N1CCC(Cn2cnc3c(F)c(Nc4ccc(C5CC5)cc4F)c(C(=O)NOCCO)cc32)C1 (stereo not drawn) | -13.4 | 2.43 |
| 0.182 | 2 | – | – | Cn1cnc2c(F)c(Nc3ccc(Br)cc3F)c(C(=O)NOCCO)cc21 [BINIMETINIB] | 58.8 | 41.4 |
| 1.28 | – | 32 | 76 | O=C(NOCCO)c1cc2c(ncn2Cc2cccc(NC(=O)C3CCC3)c2)c(F)c1Nc1ccc(C2CC2)cc1F | 38.9 | 25.1 |
| 0.985 | – | 75 | 89 | CCC(=O)Nc1cccc(Cn2cnc3c(F)c(Nc4ccc(C5CC5)cc4F)c(C(=O)NOCCO)cc32)c1 | 18 | 17.8 |
| 0.138 | – | 6 | 75 | CS(=O)(=O)Nc1cccc(Cn2cnc3c(F)c(Nc4ccc(C5CC5)cc4F)c(C(=O)NOCCO)cc32)c1 | 50.5 | 46.2 |
| – | – | – | – | CCNS(=O)(=O)Nc1cccc(Cn2cnc3c(F)c(Nc4ccc(Br)cc4F)c(C(=O)NOCCO)cc32)c1Cl | 21.9 | 39.8 |
| – | – | – | – | CNS(=O)(=O)N1CCCC(Cn2cnc3c(F)c(Nc4ccc(C5CC5)cc4F)c(C(=O)NOCCO)cc32)C1 (stereo not drawn) | 31.1 | -9.58 |
| 0.942 | – | 4 | 84 | CCNS(=O)(=O)Nc1cccc(Cn2cnc3c(F)c(Nc4ccc(C5CCC5)cc4F)c(C(=O)NOCCO)cc32)c1F | 29 | 56.2 |
| – | – | 13 | 98 | CNS(=O)(=O)Nc1cccc(Cn2cnc3c(F)c(Nc4ccc(C5CCCC5)cc4F)c(C(=O)NOCCO)cc32)c1F | 12.1 | 24.8 |
| – | – | 3 | 15 | CNS(=O)(=O)Nc1cccc(Cn2cnc3c(F)c(Nc4ccc(Br)cc4F)c(C(=O)NOCCO)cc32)c1Cl | 28.4 | 47.8 |
| – | – | – | – | CCNS(=O)(=O)Nc1cccc(Cn2cnc3c(F)c(Nc4ccc(C5CCCC5)cc4F)c(C(=O)NOCCO)cc32)c1F | 6.88 | 26.9 |
| – | – | 71 | 91 | O=C(NOCCO)c1cc2c(ncn2Cc2cccc(NC(=O)C3CCCC3)c2)c(F)c1Nc1ccc(C2CC2)cc1F | -29.7 | 4.21 |
| 0.611 | – | 16 | 85 | CNS(=O)(=O)Nc1cc(Cn2cnc3c(F)c(Nc4ccc(C5CC5)cc4F)c(C(=O)NOCCO)cc32)ccc1F | 31.6 | 35.2 |
| – | – | – | – | CCNS(=O)(=O)Nc1cccc(Cn2cnc3c(F)c(F)c(C(=O)NOCCO)cc32)c1F | 6.04 | 10.8 |
| – | – | – | – | CNS(=O)(=O)Nc1cccc(Cn2cnc3c(F)c(F)c(C(=O)NOCCO)cc32)c1F | 24.7 | 14.8 |
| – | – | 21 | 79 | CNS(=O)(=O)Nc1ccc(F)c(Cn2cnc3c(F)c(Nc4ccc(C5CC5)cc4F)c(C(=O)NOCCO)cc32)c1 | 7.1 | 12 |
| – | – | – | – | CCNS(=O)(=O)Nc1ccc(F)c(Cn2cnc3c(F)c(Nc4ccc(C5CC5)cc4F)c(C(=O)NOCCO)cc32)c1 | -38.8 | 17.5 |
| 0.628 | – | – | – | O=C(NOCCO)c1cc2c(ncn2Cc2cccc(NC(=O)C3CC3)c2)c(F)c1Nc1ccc(C2CC2)cc1F | 45 | 19.3 |
| – | – | 35 | 88 | O=C(NOCCO)c1cc2c(ncn2Cc2cccc(NC(=O)C3CCCCC3)c2)c(F)c1Nc1ccc(C2CC2)cc1F | 11.5 | 13.7 |
